Counter-ions that a name gives are not always drawn. Like-named read-outs stand apart in the source and are kept apart here.
Assays:
[1] = tested on: isolated porcine aortic smooth muscle cells; assay: Porcine aortic smooth muscle cell antiproliferation (3H thymidine incorporation); assay type: cell-based; conditions: 24-36 hours
Procedure: The ability of the compounds of the present invention to inhibit smooth muscle cell proliferation was established using isolated porcine aortic smooth muscle cells in a modification of the procedure of Castellot et al. J. Biol. Chem 257(19) 11256 (1982), as follows:
Fresh porcine aortas, scrupulously cleansed of fatty tissue, are rinsed in sterile phosphate-buffered saline with 2% antibiotic-antimycotic (100×) liquid (10,000 units of penicillin (base), 10,000 μg of streptomycin (base), and 25 μg of amphotericin B/mL utilizing penicillin G (sodium salt), streptomycin sulfate, and amphotericin B as Fungizone® in 0.85% saline, available from Gibco Laboratories, Grand Island Biological Co., Grand Island, N.Y.). The tissue is then digested in 10-15 mL of an enzyme solution containing collagenase type I, 165 U/mL; elastase type III, 15 U/mL; BSA, 2 mg/mL; and soybean trypsin inhibitor, 0.375 mg/mL, followed by incubation at 37° C. under 5% CO2 atmosphere for 10 to 15 minutes. After this treatment, the outer surface adventitia is removed by peeling with a forceps. The aorta is then longitudinally cut and laid open and the endothelial layer is removed by scraping.
The medial layer of cells is rinsed in the enzyme solution, and placed in a new 100 mm dish with 10 mL of enzyme solution. The medial layer of cells is minced using a fine pair of scissors and digested for 2-3 hours at 37° C. in 30 mL of fresh enzyme solution. After digestion, the medial tissue is homogenized using a sterile Pasteur pipette with a fire polished tip or an Eppendorf pipetter with a 200-1000 μL sterile pipette tip. The suspension is then centrifuged for 10 minutes at 8000 rpm and the pellet is suspended in 4-6 mL of fresh enzyme solution and plated onto 4-6 100 mm flasks with vented caps. The cells are then allowed to grow to confluence and split using 0.25% trypsin. The cells are evaluated for purity and overall quality using antibody to SMC actin.
The cells are assayed in early passage (generally passage 3-7) at sub-confluent conditions. Cultures are grown in 16 mm (24 well) multi-well culture dishes in media 199 supplemented with 10% fetal bovine serum and 2% antibiotic/antimycotic. At subconfluence, the cells are placed in a defined serum free, lymphocyte medium (AIM-V; Gibco) for 24-48 hours prior to initiating the experimental protocol.
The standard test procedure is initiated by addition of the test compound, ^3H thymidine and serum or a specific growth factor to the serum deprived synchronized cells. Growth factor and serum stimulations are optimized for each cell type. The test compounds are added to each well at 50 fold dilution (20 μL/well) and the plates are incubated for 24-36 hours at 37° C. in 5% CO2 atmosphere. Test compounds are dissolved in 50% ethanol and assayed at 1, 10, and 100 μM. As a control, RG 50872 (Bilder, G. A.; et al., Am. J. Cell Physiol., 1991; 260: C721) is routinely assayed under the conditions of each cell preparation at a concentration of 5 μM.
At the completion of the experiment, the plates are placed on ice, washed three times with ice cold PBS and incubated in ice cold 10% trichloroacetic acid (TCA) for 30 minutes to remove acid soluble proteins. Each solution is transferred to a scintillation vial containing 0.4N HCl (500 μL/vial to neutralize NaOH) and each well is rinsed two times with water […].
Data is quantitated by subjecting the vials to a scintillation counter, in triplicate, for both control and experimental samples. Control (100%) data is obtained from maximally stimulated cells, as the result of growth factor or serum stimulation. Experimental data is obtained from cells maximally stimulated with growth factor or serum and treated with a test compound. (The platelet-derived growth factor used in the assay was human recombinant PDGF-AB purchased from Upstate Biotechnology Inc., Lake Placid, N.Y.). Data is expressed as a percent of control from which IC50s are determined.

[2] = Cytotoxicity, commercial modification of the MTT assay; assay type: cell-based, porcine; design: dose or concentration left out as unconfirmed; conditions: pig
Procedure: To distinguish cytotoxicity from the ability of a compound to prevent proliferation, the test compounds were examined using a commercial modification of the MTT assay. Briefly, cells were grown in 24 well plates to 70-80% confluency. The cells were serum deprived for 24-48 hours prior to initiation of the experimental protocol. To insure that the MTT assay monitored toxicity rather than proliferation, the cells were incubated with […] test compound in fresh medium without serum for 24 hours at 37° C. in a humidified CO2 incubator. Upon completion of the compound treatment, MTT indicator dye was added for 4 hours a 37° C. Cells were then solubilized and aliquots from each will were transferred to a 96-well plate for analysis. Absorbance at 570 nm wavelength with a reference wavelength of 630 nm was recorded using an ELISA plate reader. Results are reported as percent viable using no drug (100% viable) and pre-solubilization (0% viable) standards.

[3] = Sus scrofa, serum-stimulated, serum deprived synchronized cells, read-out: Porcine Smooth Muscle Cell Antiproliferation IC50 or % Inhibition at x Concentration, Serum
[4] = Sus scrofa, stimulated with human recombinant PDGF-AB, read-out: Porcine Smooth Muscle Cell Antiproliferation IC50 or % Inhibition at x Concentration, PDGF
[5] = serum-stimulated, serum deprived synchronized cells, read-out: Porcine Smooth Muscle Cell Antiproliferation IC50 or % Inhibition at x Concentration, Serum
[6] = stimulated with human recombinant PDGF-AB, read-out: Porcine Smooth Muscle Cell Antiproliferation IC50 or % Inhibition at x Concentration, PDGF

melting point [°C] | Compound | IC50 [1, 3] [µM] | IC50 [1, 4] [µM] | viability at 24 h [2] [%] | IC50 [1, 5] [µM] | IC50 [1, 6] [µM]
230 to 233 | O=[N+]([O-])c1ccc2[nH]c(/C=C/c3ccoc3)nc2c1 [Example 11, (E)-2-(2-Furan-3-yl-vinyl)-5-nitro-1H-benzoimidazole] |  |  |  |  | 
116 to 119 | COc1ccc(C=Cc2nc3c(OC)c(C)c(C)c(OC)c3[nH]2)cc1OC [Example 4, 2-[2-(3,4-Dimethoxyphenyl)-vinyl]-4,7-dimethoxy-5,6-dimethyl-1H-benzoimidazole] | 1.28 | 1.5 | 100 |  | 
 | COc1ccc(C=Cc2nc3c([nH]2)C(=O)C(C)=C(C)C3=O)cc1OC [Example 9, 2-[2-(3,4-Dimethoxyphenyl)-vinyl]-5,6-dimethyl-1-benzoimidazol-4,7-dione] |  |  |  | 14.5 | 0.858
 | COc1ccc2[nH]c(C=Cc3ccc(OC)c(OC)c3)nc2c1 [Example 2, 2-[2-(3,4-Dimethoxyphenyl)-vinyl]-5-methoxy-1H-benzoimidazole] | 11.4 | 3.48 | 100 |  | 
111 to 114 | COC(=O)c1ccc(Cn2c(C=Cc3ccc(OC)c(OC)c3)nc3c(OC)c(C)c(C)c(OC)c32)cc1 (hydrate or solvate) [Example 8, 4-{2-[2-(3,4-Dimethoxyphenyl)-vinyl]-4,7-dimethoxy-5,6-dimethyl-benzoimidazol-1-ylmethyl}-benzoic acid methyl ester] |  |  |  |  | 
185 to 188 | COC(=O)c1ccc2[nH]c(/C=C/c3ccc(OC)c(OC)c3)nc2c1 [Example 5, (E)-2-[2-(3,4-Dimethoxyphenyl)-vinyl]-1H-benzoimidazole-5-carboxylic acid methyl ester] | 1.2 | 6.12 | 100 |  | 
 | COc1ccc(/C=C/c2nc3ccccc3[nH]2)cc1OC [Example 1, (E)-2-[2-(3,4-Dimethoxyphenyl)-vinyl]-1H-benzoimidazole] | 5.91 | 4.1 | 100 |  | 
246 to 249 | COc1ccc2[nH]c(C=Cc3ccc(OC)c(OC)c3)nc2c1 (as salt: hydrochloride) (hydrate or solvate) [Example 2, 2-[2-(3,4-Dimethoxyphenyl)-vinyl]-5-methoxy-1H-benzoimidazole] |  |  |  |  | 
 | COc1ccc(C=Cc2nc3cc(C(=O)c4ccccc4)ccc3[nH]2)cc1OC [Example 3, {2-[2-(3,4-Dimethoxyphenyl)-vinyl]-1H-benzoinmidazol-5-yl}-phenyl-methanone] |  |  |  | 7.6 | 0.324 to 0.801
 | COc1ccc(/C=C/c2nc3cc(C(=O)O)ccc3[nH]2)cc1OC [Example 6, (E)-2-[2-(3,4-Dimethoxyphenyl)-vinyl]-1H-benzoimidazole-5-carboxylic acid] | 2.26 | 7.49 | 100 |  | 
 | O=[N+]([O-])c1ccc2[nH]c(/C=C/c3ccncc3)nc2c1 [Example 10, (E)-5-Nitro2-(2-pyridin-4-yl-vinyl)-1H-benzoimidazole] | 8.36 | 0.62 | 45 |  | 
223 to 225 | COc1ccc(/C=C/c2nc3cc([N+](=O)[O-])ccc3[nH]2)cc1OC [Example 7, (E)-2-[2-(3,4-Dimethoxyphenyl)-vinyl]-5-nitro-1H-benzoimidazole] | 0.567 to 1.9 | 1.49 | 100 |  | 
 | COC(=O)c1ccc(Cn2c(C=Cc3ccc(OC)c(OC)c3)nc3c(OC)c(C)c(C)c(OC)c32)cc1 [Example 8, 4-{2-[2-(3,4-Dimethoxyphenyl)-vinyl]-4,7-dimethoxy-5,6-dimethyl-benzoimidazol-1-ylmethyl}-benzoic acid methyl ester] | 0.915 to 10.2 | 0.622 | 80 |  | 

Source: patent publication US6444694B1, “Styryl benzimidazole derivatives” (Wyeth, priority 1995, dated 2002)
